One data set relates to CHO‐hSGLT1/2 cells. Kind of data set: Cytotoxicity assay (ToxiLight, adenylate kinase leakage into CHO‐SGLT1/2 inhibition assay media).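 For all read-outs here: bioluminescent read-out of adenylate kinase released from lysed cells into the medium, given relative to DMSO vehicle control defined as 0%, higher meaning more cytolysis.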 Details: CYTOTOXICITY / CY[…], mean / CYTOTOXICITY (% of vehicle control) Mean / CYTOTOXICITY, mean / CY[…] (% of vehicle control) Mean: dose or concentration left out as unconfirmed. The following applies: for CY[…] 50 mM: at 50 mM (so in the source).

For a further data set, the target named is T1, hSGLT2 (Homo sapiens, UniProt P31639).
T1 sequence (P31639 1-672): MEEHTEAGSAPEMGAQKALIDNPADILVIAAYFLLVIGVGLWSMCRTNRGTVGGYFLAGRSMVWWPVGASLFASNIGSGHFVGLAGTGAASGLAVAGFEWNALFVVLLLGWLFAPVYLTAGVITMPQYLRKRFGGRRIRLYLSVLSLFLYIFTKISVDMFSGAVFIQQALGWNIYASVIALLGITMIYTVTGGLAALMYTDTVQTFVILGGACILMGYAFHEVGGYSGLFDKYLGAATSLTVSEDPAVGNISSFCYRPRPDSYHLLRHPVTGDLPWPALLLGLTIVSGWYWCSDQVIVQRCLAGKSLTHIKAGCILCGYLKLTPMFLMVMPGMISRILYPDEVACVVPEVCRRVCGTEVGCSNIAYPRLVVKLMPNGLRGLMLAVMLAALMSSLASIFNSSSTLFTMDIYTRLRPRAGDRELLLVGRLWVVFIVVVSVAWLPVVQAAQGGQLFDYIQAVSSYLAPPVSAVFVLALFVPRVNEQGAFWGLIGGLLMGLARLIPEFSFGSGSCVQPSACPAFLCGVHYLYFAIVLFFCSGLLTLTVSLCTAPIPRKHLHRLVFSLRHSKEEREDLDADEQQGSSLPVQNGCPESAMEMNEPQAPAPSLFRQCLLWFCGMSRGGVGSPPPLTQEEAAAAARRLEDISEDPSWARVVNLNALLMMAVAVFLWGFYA
Kind of data set: SGLT2 inhibition assay for validation of screening hits and similar compounds (1‐NBD‐glucose uptake, CHO‐hSGLT2 cells). The format is cell-based. The arrangement: activity: dose or concentration left out as unconfirmed. The following applies: for activity: compound, normalized 1-NBD-glucose uptake, CHO-hSGLT2 cells; for activity / remaining activity at 5 µM / remaining activity at 50 µM: mean; for inhibition at 50 µM: mean inhibition with 50 μmol/L inhibitor; for SGLT2/SGLT1 ACTIVITY RATIO 5 uM Mean: ratio of normalized SGLT2 to SGLT1 activity at 5 uM; for remaining activity at 5 µM / remaining activity at 50 µM: 0.5 h, concentration not given, read-out: NORMALIZED SGLT2 ACTIVITY (%).

The next data set has as its target T2, SGLT1 (Homo sapiens, UniProt P13866).
T2 sequence (P13866 1-664): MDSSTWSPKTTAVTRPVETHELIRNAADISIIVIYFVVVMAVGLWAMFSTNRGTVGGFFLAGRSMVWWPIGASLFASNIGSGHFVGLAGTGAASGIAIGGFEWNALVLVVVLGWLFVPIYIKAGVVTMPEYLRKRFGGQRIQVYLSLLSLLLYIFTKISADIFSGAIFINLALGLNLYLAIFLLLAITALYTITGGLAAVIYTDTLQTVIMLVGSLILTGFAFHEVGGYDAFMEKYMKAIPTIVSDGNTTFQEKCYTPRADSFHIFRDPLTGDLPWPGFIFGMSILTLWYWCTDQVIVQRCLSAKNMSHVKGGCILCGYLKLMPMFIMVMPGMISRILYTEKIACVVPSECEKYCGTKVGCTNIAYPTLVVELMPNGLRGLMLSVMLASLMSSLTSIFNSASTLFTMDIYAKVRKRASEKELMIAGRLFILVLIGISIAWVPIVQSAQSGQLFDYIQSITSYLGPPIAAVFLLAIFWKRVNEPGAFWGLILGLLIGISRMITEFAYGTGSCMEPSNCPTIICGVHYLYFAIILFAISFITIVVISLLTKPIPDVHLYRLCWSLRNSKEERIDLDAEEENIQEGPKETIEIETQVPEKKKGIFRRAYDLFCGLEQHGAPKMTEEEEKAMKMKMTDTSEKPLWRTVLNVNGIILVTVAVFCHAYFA
In words: SGLT1 inhibition assay for validation of screening hits and similar compounds (1‐NBD‐glucose uptake, CHO‐hSGLT1 cells). Format: cell-based. The arrangement: activity: dose or concentration left out as unconfirmed. The following applies: for activity: compound, normalized 1-NBD-glucose uptake, CHO-hSGLT1 cells; for activity / remaining activity at 5 µM / remaining activity at 50 µM: mean; for inhibition at 50 µM: mean inhibition with 50 μmol/L inhibitor, read-out: SGLT1 inhibition; for remaining activity at 5 µM / remaining activity at 50 µM: 0.5 h, concentration not given, read-out: NORMALIZED SGLT1 ACTIVITY (%).

[1] abbreviates: ToxiLight, adenylate kinase leakage.
Where [2] appears, read: ratio of normalized SGLT2 to SGLT1 activity.

The record followed here is paper PMC6664820, “Novel natural and synthetic inhibitors of solute carriers SGLT1 and SGLT2” (Pharmacology Research & Perspectives, 2019).

Counter-ions that a name gives are not always drawn.

By inhibition is commonly meant how much of the control response was suppressed. A word on the IC50: it is the concentration needed to halve the response being measured.

Description for CHO‐hSGLT1/2 cells: The cytotoxicity of representative SGLT1/2 inhibitors and compounds from the different chemical clusters was tested. Cytotoxicity was determined using the ToxiLight bioassay kit according to the supplier's instructions. This nondestructive assay measures leakage of the enzyme adenylate kinase (AK) from damaged cells into the CHO‐SGLT1/2 inhibition assay media, ie the degree of cytolysis. […] Next, bioluminescence was measured using a FlexStation 3 Multi‐Mode Microplate Reader (Molecular Devices) by 1 second integrated reading. Cytotoxicity was expressed as the percentage of bioluminescence of the DMSO vehicle control which was set at 0%. If applicable, statistical outliers were determined using Grubbs’ test (alpha = 0.05) and excluded for calculation of the mean ± SD.

Regarding `CN1[C@@H]2CC[C@H]1C[C@@H](OC(c1ccccc1)c1ccccc1)C2` [Benztropine mesylate], the “CY[…] (% of vehicle control) Mean” value in the data set on CHO‐hSGLT1/2 cells (mean) is -10 % of vehicle control. Also, the activity on hSGLT2 is 73%.
With `O=C(/C=C/c1ccc(O[C@@H]2O[C@H](CO)[C@@H](O)[C@H](O)[C@H]2O)cc1)c1ccc(O)cc1O` [Isoliquiritin], at SGLT1, the “SGLT2/SGLT1‐50μmol/L (ratio of SGLT2 to SGLT1 activities with 50 μmol/L inhibitor)” value came out at 1.4, the activity came to 96% and the inhibition at 50 µM worked out at 46%. At hSGLT2, the activity came to 98%, the inhibition at 50 µM is 24% and the “SGLT2/SGLT1 ACTIVITY RATIO 5 uM Mean” value was 1.0.
In the case of `O=C1C[C@@H](c2ccc(O[C@@H]3O[C@H](CO)[C@@H](O)[C@H](O)[C@H]3O)cc2)Oc2cc(O)ccc21` [Liquiritin], in the data set on CHO‐hSGLT1/2 cells (mean), the “CYTOTOXICITY (% of vehicle control) Mean” value is -10 % of vehicle control. Besides, on hSGLT2, the activity amounted to 101% and the “SGLT2/SGLT1 ACTIVITY RATIO 5 uM Mean” value stood at 1.0.
Take `c1ccc(CO[C@H]2COCCN(Cc3ccccn3)C2)cc1`: on SGLT1, the activity is 120%. For the same compound, on hSGLT2, the activity turned out to be 110% and the “SGLT2/SGLT1 ACTIVITY RATIO 5 uM Mean” value is given as 0.9.
With `CC1(C)OC(=O)C=C[C@]2(C)[C@H]3CC[C@@]4(C)[C@H](c5ccoc5)OC(=O)[C@H]5O[C@]54[C@]3(C)C(=O)C[C@@H]12` [Obacunone], the “CYTOTOXICITY, mean” value with CHO‐hSGLT1/2 cells (setting [1]) was -21. For the same compound, at hSGLT2 (setting [2]), the “SGLT2/SGLT1 ACTIVITY RATIO, first concentration” value came to 1.2 and the “SGLT2/SGLT1 ACTIVITY RATIO, second concentration” value amounted to 1.1.
In the case of `COc1cc(O)c2c(=O)c(-c3ccc(OC4OC(CO)C(O)C(O)C4O)cc3)coc2c1` (stereo not drawn) [Prunetin‐4‐p‐galactoside], the “SGLT2/SGLT1‐50μmol/L (ratio of SGLT2 to SGLT1 activities with 50 μmol/L inhibitor)” value on SGLT1 came to 2.3. In addition, the results for the inhibition at 50 µM on SGLT1 and against hSGLT2 were 62% and 12%, respectively.
In the case of `CN(C)CCOC(c1ccc(Cl)cc1)c1ccccn1` (stereo not drawn) [Carbinoxamine], the values for the activity on SGLT1 and at hSGLT2 were 105% and 100%, respectively. Also, the “SGLT2/SGLT1 ACTIVITY RATIO 5 uM Mean” value on hSGLT2 is recorded as 1.0.
Take `CN(C)CCN(Cc1cccs1)c1ccccn1` [Methapyrilene HCl]: in the data set with CHO‐hSGLT1/2 cells (mean), the “CY[…] 50 mM” value is given as -16.
Take `C=C[C@H]1C[N@@]2CC[C@H]1C[C@@H]2[C@@H](O)c1ccnc2ccccc12` [Cinchonine]: the remaining activity at 5 µM at SGLT1 came to 121%; on hSGLT2, 111%. Besides, the remaining activity at 50 µM at SGLT1 was 112%; at hSGLT2, 105%.
As to `CN1CCC[C@@H]1CCO[C@](C)(c1ccccc1)c1ccc(Cl)cc1` [Clemastine fumarate], in the data set on CHO‐hSGLT1/2 cells (mean), the “CY[…] 50 mM” value is listed as 2.45.
For `CCCNC(C)C(=O)Nc1ccccc1C` (stereo not drawn) [Prilocaine], on SGLT1, the remaining activity at 5 µM turned out to be 95% and the remaining activity at 50 µM was found to be 86%. On hSGLT2, the remaining activity at 5 µM worked out at 89% and the remaining activity at 50 µM turned out to be 76%.
Regarding `CN[C@H]1CC[C@@H](c2ccc(Cl)c(Cl)c2)c2ccccc21` [Sertraline HCl], the “CY[…], mean” value in the data set with CHO‐hSGLT1/2 cells (setting [1]) was -21.
For the compound `Clc1ccc(C(OCCN2CCCCC2)c2ccccc2)cc1` (stereo not drawn) [Cloperastine, cloperastine, reference compound], the IC50 on SGLT1 (1‐NBD‐glucose uptake, CHO‐hSGLT1, mean of n biological replicates, or individual measurements where n=2, read-out: SGLT1‐IC50 Mean) is 9 µM; at hSGLT2 (1‐NBD‐glucose uptake, CHO‐hSGLT2, mean of n biological replicates, or individual measurements where n=2, read-out: SGLT2‐IC50 Mean) it was 9 µM. Moreover, the “SGLT1/2 inhibition stated in words” value on SGLT1 (SGLT1 and/or SGLT2, discussion statements) is reported as “novel SGLT1/2 inhibitors”. Moreover, the inhibition at 50 µM on SGLT1 is 72%.
For `Oc1c(I)cc(I)c2cccnc12`, at SGLT1, the remaining activity at 5 µM came to 109% and the remaining activity at 50 µM amounted to 106%. Moreover, on hSGLT2, the remaining activity at 5 µM stood at 107% and the remaining activity at 50 µM worked out at 107%.
